Laboratory results reported in US20180305391A1, “COFACTOR ANALOGS AS […] INHIBITORS FOR TREATING CANCER” (MEMORIAL SLOAN-KETTERING CANCER CENTER, priority 2015, published 2018).
Like-named read-outs stand apart in the source and are kept apart here.

Assays:
Assay type in all cases: biochemical
[1] = target: T1, SMYD3 (Homo sapiens, UniProt Q9H7B4); assay: PMT filter-paper methylation assay, SMYD3; settings: SMYD3 125 nM final, MAP3K2 (1-350 aa), 2 h
T1 sequence (Q9H7B4 1-428): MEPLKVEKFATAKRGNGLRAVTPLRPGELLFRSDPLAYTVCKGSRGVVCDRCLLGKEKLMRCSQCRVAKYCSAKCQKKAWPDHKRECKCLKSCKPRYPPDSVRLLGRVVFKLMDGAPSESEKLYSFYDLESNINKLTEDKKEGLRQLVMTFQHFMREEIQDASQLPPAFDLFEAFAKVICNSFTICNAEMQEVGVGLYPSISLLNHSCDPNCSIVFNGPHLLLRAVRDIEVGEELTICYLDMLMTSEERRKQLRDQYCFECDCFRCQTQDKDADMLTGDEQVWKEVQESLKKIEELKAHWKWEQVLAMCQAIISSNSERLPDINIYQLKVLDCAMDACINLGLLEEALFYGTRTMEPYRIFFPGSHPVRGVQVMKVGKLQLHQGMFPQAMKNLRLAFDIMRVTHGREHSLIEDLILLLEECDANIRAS
Description: (§1) Methylation Reaction. The 20 μL methylation reaction was carried out at ambient temperature using two mixtures: A. 10 μl of enzyme mixture in the assay buffer containing 50 mM Hepes (pH=8.0), 0.005% Tween-20, 5 μg/ml BSA and 1 mM TCEP; B. 10 μl of a mixture of 1.5 μM, 0.15 μCi [^3H-Me]-SAM cofactor and 3 μM of the corresponding peptide substrate in the same assay buffer. After A and B were mixed for a designated time period, the reaction mixture was examined with our filter-paper assay.
(§2) Filter-paper Assay. This assay relies on Whatman P-81 filter paper, which binds peptides but not SAM. Protein Methyl Transferases (PMTs) transfer ^3H-Me of [^3H-Me]-SAM to peptide substrates and the resultant ^3H-methylated, filter-paper-bound peptide is quantified with a scintillation counter. […] The radioactivity was quantified by a Beckman LS6000IC liquid scintillation counter.
(§3) Dose-response Curves and IC50. […] After incubating the reaction mixture for the respective reaction time, the conversion was quantified with the filter paper assay as described above. The inhibition was expressed as the percentage between the high control (no inhibition) and the low control (no enzyme) as follows: Percentage Inhibition=[(high control−reading)/(high control−low control)]×100%. […]

[2] = target: T2, SETD2 (Homo sapiens, UniProt Q9BYW2); assay: PMT filter-paper methylation assay, SETD2; settings: SETD2 (1347-1711) 250 nM final, H3 (20-50 aa), 4 h
T2 construct: SETD2 (1347-1711)
T2 sequence (Q9BYW2 1347-1711): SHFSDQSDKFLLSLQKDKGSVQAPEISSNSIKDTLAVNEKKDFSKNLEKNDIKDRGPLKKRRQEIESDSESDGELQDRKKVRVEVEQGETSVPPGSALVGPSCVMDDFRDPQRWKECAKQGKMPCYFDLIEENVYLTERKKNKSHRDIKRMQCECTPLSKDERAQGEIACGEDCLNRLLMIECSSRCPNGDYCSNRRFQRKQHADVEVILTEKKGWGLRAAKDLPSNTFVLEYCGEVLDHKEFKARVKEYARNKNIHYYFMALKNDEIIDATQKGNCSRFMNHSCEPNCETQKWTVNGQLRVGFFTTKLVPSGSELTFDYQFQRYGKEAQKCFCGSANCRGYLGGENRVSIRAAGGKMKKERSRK
Description: as §1, §2, §3

[3] = target: PRMT8 (Homo sapiens, UniProt Q9NR22); assay: PMT filter-paper methylation assay, PRMT8
Sequence of PRMT8 (Q9NR22 whole entry): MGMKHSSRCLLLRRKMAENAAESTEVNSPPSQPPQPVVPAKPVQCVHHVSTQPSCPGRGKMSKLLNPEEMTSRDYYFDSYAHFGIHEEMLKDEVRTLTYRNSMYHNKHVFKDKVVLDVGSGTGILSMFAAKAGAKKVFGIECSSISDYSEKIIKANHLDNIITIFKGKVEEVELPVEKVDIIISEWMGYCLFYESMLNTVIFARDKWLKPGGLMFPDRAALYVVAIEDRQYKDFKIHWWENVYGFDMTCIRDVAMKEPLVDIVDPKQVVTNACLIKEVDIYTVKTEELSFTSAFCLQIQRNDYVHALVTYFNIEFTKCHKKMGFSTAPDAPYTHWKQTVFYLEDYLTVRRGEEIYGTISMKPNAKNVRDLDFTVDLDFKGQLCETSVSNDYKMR
Description: as §1, §2, §3

[4] = target: T3, SET8 (Homo sapiens, UniProt Q9NQR1); assay: PMT filter-paper methylation assay, SET8; settings: SET8 (191-352) 1000 nM final, H4 (10-30 aa), 8 h
T3 construct: SET8 (191-352)
T3 sequence (Q9NQR1 191-352 isoform Q9NQR1-2): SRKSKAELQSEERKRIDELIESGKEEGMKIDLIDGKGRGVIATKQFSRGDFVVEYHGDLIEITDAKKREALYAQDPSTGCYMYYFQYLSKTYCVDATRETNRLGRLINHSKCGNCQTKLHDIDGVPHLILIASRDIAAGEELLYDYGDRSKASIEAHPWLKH
Description: as §1, §2, §3

[5] = target: T4, PRMT1 (Homo sapiens, UniProt Q99873); assay: PMT filter-paper methylation assay, PRMT1; settings: PRMT1 (10-352), 100 nm, RGG substrate, 1.5 h
T4 construct: PRMT1 (10-352)
T4 sequence (Q99873 10-352 isoform Q99873-3): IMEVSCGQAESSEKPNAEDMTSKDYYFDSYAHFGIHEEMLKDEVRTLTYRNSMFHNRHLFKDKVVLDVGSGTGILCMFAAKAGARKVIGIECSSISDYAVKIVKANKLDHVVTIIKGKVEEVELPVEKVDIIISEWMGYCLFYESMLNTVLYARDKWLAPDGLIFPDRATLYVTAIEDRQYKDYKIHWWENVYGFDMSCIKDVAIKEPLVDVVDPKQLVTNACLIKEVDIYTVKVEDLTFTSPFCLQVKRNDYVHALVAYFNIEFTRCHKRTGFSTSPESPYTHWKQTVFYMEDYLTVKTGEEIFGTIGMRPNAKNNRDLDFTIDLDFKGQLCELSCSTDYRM

[6] = target: T5, PRMT3 (Homo sapiens, UniProt O60678); assay: PMT filter-paper methylation assay, PRMT3; settings: PRMT3 (211-531) 100 nM final, RGG, 3 h
T5 construct: PRMT3 (211-531)
T5 sequence (O60678 211-531): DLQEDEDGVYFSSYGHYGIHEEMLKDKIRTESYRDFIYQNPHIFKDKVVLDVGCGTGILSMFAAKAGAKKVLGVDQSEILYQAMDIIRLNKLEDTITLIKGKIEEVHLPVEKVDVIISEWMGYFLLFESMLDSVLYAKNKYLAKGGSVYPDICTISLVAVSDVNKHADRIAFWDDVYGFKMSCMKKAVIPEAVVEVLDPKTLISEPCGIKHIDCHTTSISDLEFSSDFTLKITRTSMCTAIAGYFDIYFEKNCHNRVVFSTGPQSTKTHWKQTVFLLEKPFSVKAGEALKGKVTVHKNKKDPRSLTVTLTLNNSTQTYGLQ

[7] = target: T6, G9a (Homo sapiens, UniProt Q96KQ7); assay: PMT filter-paper methylation assay, G9a; settings: G9a (913-1913) 20 nM final, H3 (1-21 aa), 1 h
T6 construct: G9a (913-1913)
T6 sequence (Q96KQ7 913-1193 limits assumed): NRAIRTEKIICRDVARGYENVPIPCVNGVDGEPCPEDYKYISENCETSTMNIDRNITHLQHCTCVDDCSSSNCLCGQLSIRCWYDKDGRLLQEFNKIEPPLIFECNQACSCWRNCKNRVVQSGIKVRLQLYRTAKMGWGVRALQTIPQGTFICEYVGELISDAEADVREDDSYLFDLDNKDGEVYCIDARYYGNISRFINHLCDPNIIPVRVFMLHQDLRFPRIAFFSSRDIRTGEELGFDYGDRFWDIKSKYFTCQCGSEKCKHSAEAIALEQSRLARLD

[8] = target: T7, SUV39H2 (Homo sapiens, UniProt Q9H5I1); assay: PMT filter-paper methylation assay, SUV39H2; settings: SUV39H2 (112-410) 5 nM final, H3 (1-21 aa), 4 h
T7 construct: SUV39H2 (112-410)
T7 sequence (Q9H5I1 112-410): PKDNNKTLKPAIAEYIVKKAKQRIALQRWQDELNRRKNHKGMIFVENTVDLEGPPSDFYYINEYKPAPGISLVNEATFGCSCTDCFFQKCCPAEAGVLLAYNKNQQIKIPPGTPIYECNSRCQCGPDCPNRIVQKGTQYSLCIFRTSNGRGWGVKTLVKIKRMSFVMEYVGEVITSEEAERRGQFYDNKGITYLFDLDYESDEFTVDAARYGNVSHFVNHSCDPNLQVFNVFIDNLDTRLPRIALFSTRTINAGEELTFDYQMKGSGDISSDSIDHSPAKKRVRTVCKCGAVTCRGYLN

[9] = target: T8, SMYD2-FL (Homo sapiens, UniProt Q9NRG4); assay: PMT filter-paper methylation assay, SMYD2; settings: SMYD2 full-length 50 nM final, p53 (360-393 aa), 10 h
T8 construct: SMYD2 Full-length
T8 sequence (Q9NRG4 whole entry, the tested form may be a part): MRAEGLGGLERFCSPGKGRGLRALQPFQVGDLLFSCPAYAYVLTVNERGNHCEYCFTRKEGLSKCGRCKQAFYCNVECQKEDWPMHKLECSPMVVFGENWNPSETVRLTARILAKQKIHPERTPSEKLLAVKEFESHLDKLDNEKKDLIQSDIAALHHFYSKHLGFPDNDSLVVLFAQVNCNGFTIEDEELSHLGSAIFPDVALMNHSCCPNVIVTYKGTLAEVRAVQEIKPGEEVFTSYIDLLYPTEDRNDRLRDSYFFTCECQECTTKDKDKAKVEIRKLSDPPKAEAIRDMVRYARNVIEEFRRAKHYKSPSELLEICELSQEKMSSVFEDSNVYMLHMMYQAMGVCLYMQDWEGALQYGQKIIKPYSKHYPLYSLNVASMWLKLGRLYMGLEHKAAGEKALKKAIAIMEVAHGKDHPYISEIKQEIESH
Description: as §1, §2, §3

[10] = target: T9, GLP1 (Homo sapiens, UniProt Q9H9B1); assay: PMT filter-paper methylation assay, GLP1; settings: GLP1 (951-1235) 10 nM final, H3 (1-21 aa), 1 h
T9 construct: GLP1 (951-1235)
T9 sequence (Q9H9B1 982-1266): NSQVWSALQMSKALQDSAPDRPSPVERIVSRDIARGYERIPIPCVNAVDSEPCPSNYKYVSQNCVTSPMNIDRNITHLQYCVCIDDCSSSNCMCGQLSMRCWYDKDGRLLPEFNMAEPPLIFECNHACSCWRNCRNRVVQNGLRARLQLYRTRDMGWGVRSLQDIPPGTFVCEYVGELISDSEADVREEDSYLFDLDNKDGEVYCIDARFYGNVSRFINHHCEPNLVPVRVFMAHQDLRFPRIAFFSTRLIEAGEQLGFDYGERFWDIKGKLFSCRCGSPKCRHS
Description: as §1, §2, §3

[11] = target: MLL1 (Homo sapiens, UniProt Q03164); assay: PMT filter-paper methylation assay, MLL1
Description: as §1, §2, §3

[12] = target: T10, SET7/9 (Homo sapiens, UniProt Q8WTS6); assay: PMT filter-paper methylation assay, SET7/9; settings: SET7/9 full-length 150 nM final, H3 (1-21 aa), 3 h
T10 construct: SET7/9 Full-length
T10 sequence (Q8WTS6 1-366): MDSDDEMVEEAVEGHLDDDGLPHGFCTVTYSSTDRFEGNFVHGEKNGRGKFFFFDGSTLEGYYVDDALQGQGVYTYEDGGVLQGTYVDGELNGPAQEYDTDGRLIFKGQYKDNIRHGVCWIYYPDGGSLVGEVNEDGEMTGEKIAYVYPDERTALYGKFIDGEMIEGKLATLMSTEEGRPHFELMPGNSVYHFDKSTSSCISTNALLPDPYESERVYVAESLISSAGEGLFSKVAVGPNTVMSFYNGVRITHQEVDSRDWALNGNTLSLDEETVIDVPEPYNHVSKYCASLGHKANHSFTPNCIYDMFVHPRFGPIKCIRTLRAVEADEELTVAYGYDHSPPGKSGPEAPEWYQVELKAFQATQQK
Description: as §1, §2, §3

[13] = target: T11, CARM1 (Homo sapiens, UniProt Q86X55); assay: PMT filter-paper methylation assay, CARM1; settings: H3 (1-40 aa), 7 h
T11 construct: CARM1 (19-608)
T11 sequence (Q86X55 19-608): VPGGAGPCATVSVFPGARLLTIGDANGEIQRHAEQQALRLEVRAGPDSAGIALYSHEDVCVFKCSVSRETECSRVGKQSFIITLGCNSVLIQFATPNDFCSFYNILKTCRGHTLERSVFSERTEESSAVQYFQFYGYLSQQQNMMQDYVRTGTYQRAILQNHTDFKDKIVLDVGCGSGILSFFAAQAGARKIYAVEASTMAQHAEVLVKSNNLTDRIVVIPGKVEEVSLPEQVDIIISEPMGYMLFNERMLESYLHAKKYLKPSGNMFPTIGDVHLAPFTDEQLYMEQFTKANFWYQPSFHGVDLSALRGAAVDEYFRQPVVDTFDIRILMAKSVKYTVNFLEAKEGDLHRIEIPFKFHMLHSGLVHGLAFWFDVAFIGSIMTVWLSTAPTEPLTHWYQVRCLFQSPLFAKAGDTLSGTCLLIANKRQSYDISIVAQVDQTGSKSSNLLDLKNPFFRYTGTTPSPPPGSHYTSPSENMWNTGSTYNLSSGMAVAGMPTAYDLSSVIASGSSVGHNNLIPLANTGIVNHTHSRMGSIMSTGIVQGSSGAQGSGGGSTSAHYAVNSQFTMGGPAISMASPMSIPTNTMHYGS

## CC(C)(C)c1ccc(NC(=O)NCCC[C@H](CNCc2ccccc2)C[C@H]2O[C@@H](n3cnc4c(N)ncnc43)C(O)C2O)cc1 (some centres unmarked) [Example 104]
[1]
  IC50: > 50 µM
[2]
  IC50: 45 µM
[3]
  IC50: > 50 µM
[4]
  IC50: > 50 µM
[5]
  IC50: > 50 µM
[6]
  IC50: > 50 µM
[7]
  IC50: > 50 µM
[8]
  IC50: > 50 µM
[9]
  IC50: > 50 µM
[10]
  IC50: > 50 µM
[11]
  IC50: 4.5 µM
[12]
  IC50: > 50 µM
[13]; CARM1 (19-608)^a 300 nM final enzyme, read-out: IC50 CARM1^a
  IC50: 300 nM
[13]; CARM1 (19-608)^b 25 nM final enzyme, read-out: IC50 CARM1^b
  IC50: 50 nM
